Source: US11389456B2, “Compounds and methods for treating oxalate-related diseases” (OxaluRx, Inc., priority 2018, dated 2022)
In brackets after ≈: the same amount, converted by molar mass.

How the values were obtained:
[1] = Solubility in phosphate buffered saline (PBS), pH 7.4; format: physicochemical; settings: phosphate buffer (PBS), aqueous buffer, kinetic from dmso stock; phosphate buffered saline pH 7.4, 1% DMSO, 1 hour shaking at room temperature
Summary of the method: (§1)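 DMSO stock (10 mM) diluted into 100 mM phosphate buffer pH 7.4, or into deionized distilled water for the aqueous assay, at 1% final DMSO and shaken 1 h at room temperature. After centrifugation, supernatants quantified by LC-MS/MS against a calibration curve with internal standard.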

[2] = Solubility in aqueous solution (deionized, distilled water); format: physicochemical; settings: kinetic from dmso stock, 1% DMSO, read-out: Aqueous Solubility H2O
Summary of the method: as §1

[3] = Protein binding (plasma equilibrium dialysis); format: in vitro ADME; settings: 5 hours at 37° C.
Summary of the method: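 Compound spiked into plasma at 1 μM final (0.2% DMSO) and dialysed against phosphate buffer for 5 hours at 37 °C with shaking. Donor and receiver samples, matrix-matched and acetonitrile-quenched with internal standard, quantified by LC/MS/MS alongside 0-hour plasma samples.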

O=C(O)c1nn[nH]c1Sc1ccc(Cl)cc1 [Example I-001, 5-((4-chlorophenyl)thio)-1H-1,2,3-triazole-4-carboxylic acid]
solubility at 1 h [1]: 94.5 µM (≈ 24.1 µg/mL)
solubility at 1 h [2]: 83.8 µM (≈ 21.4 µg/mL)
recovery at 5 h, 1 μM [3]: 75.4%
